# ChEMBL document CHEMBL5500395 (J Med Chem, 2024)
# Assay: Solubility of compound in PBS at pH 7.4 at 100 uM incubated for 120 mins by LC-MS/MS analysis
# Type: physicochemical
# Details: buffer, pH 7.4, 2 h
row,SMILES,solubility
1,N[C@H]1C[C@H](OC(=O)[C@@H]2[C@H]3C[C@H]4c5[nH]c6ccccc6c5CCN4C[C@@H]3CC[C@@H]2O)C1,Soluble
2,O=C(OC[C@H]1CCN1)[C@@H]1[C@H]2C[C@H]3c4[nH]c5ccccc5c4CCN3C[C@@H]2CC[C@@H]1O,Soluble
3,O=C(OC[C@H]1CCNC1)[C@@H]1[C@H]2C[C@H]3c4[nH]c5ccccc5c4CCN3C[C@@H]2CC[C@@H]1O,Soluble
4,CC(C)OC(=O)[C@@H]1[C@H]2C[C@H]3c4[nH]c5ccccc5c4CCN3C[C@@H]2CC[C@@H]1O,Soluble
5,O=C(OC1COC1)[C@@H]1[C@H]2C[C@H]3c4[nH]c5ccccc5c4CCN3C[C@@H]2CC[C@@H]1O,Soluble
6,N[C@H]1C[C@@H](OC(=O)[C@@H]2[C@H]3C[C@H]4c5[nH]c6ccccc6c5CCN4C[C@@H]3CC[C@@H]2O)C1,Soluble
7,O=C(N[C@H]1CCNC1)[C@@H]1[C@H]2C[C@H]3c4[nH]c5ccccc5c4CCN3C[C@@H]2CC[C@@H]1O,Soluble
8,CNCCOC(=O)[C@@H]1[C@H]2C[C@H]3c4[nH]c5ccccc5c4CCN3C[C@@H]2CC[C@@H]1O,Soluble
9,O=C(OC1CCNCC1)[C@@H]1[C@H]2C[C@H]3c4[nH]c5ccccc5c4CCN3C[C@@H]2CC[C@@H]1O,Soluble
10,O=C(OC[C@H]1CCCN1)[C@@H]1[C@H]2C[C@H]3c4[nH]c5ccccc5c4CCN3C[C@@H]2CC[C@@H]1O,Soluble
11,O=C(O[C@H]1CCOC1)[C@@H]1[C@H]2C[C@H]3c4[nH]c5ccccc5c4CCN3C[C@@H]2CC[C@@H]1O,Soluble
12,CN1CC[C@H](OC(=O)[C@@H]2[C@H]3C[C@H]4c5[nH]c6ccccc6c5CCN4C[C@@H]3CC[C@@H]2O)C1,Soluble
13,O=C(OC[C@@H]1CCNC1)[C@@H]1[C@H]2C[C@H]3c4[nH]c5ccccc5c4CCN3C[C@@H]2CC[C@@H]1O,Soluble
14,O=C(OC1CNC1)[C@@H]1[C@H]2C[C@H]3c4[nH]c5ccccc5c4CCN3C[C@@H]2CC[C@@H]1O,Soluble
15,CCOC(=O)[C@@H]1[C@H]2C[C@H]3c4[nH]c5ccccc5c4CCN3C[C@@H]2CC[C@@H]1O,Soluble
16,O=C(O[C@@H]1CCNC1)[C@@H]1[C@H]2C[C@H]3c4[nH]c5ccccc5c4CCN3C[C@@H]2CC[C@@H]1O,Soluble
17,O=C(O[C@H]1CCNC1)[C@@H]1[C@H]2C[C@H]3c4[nH]c5ccccc5c4CCN3C[C@@H]2CC[C@@H]1O,Soluble
